Laboratory results reported in patent US20170360779A1, “PHARMACEUTICAL COMPOSITION COMPRISING BICYCLIC NITROGEN-CONTAINING AROMATIC HETEROCYCLIC AMIDE COMPOUND AS ACTIVE INGREDIENT” (Astellas Pharma Inc., priority 2014, published 2017).

What was measured:
A427 cells [1] = assay: Anti-tumor test (1) on mice bearing A427 tumors; format: in vivo, BALB/c nude mice; conditions: Test Example 3, A427 (LKB1 mutation-positive), 8 mg/kg oral once a day for 21 days, final measuring day
Method: (§1) A427 cells and NCI-H1395 cells which are LKB1 mutation-positive non-small cell lung cancer cell lines, and HARA cells and NCI-H1993 cells which are LKB1 wild-type non-small cell lung cancer cell lines, suspended in a mixed solution of PBS and Matrigel (registered trademark) in 1:1, were injected and implanted, 3×10^6 cells each, to 4- to 5-week-old male BALB/c nude mice (Charles River Laboratories Japan, Inc.) under the skin on the back. After that, administering of the test compounds was started after confirming that the average tumor volume exceeded 100 mm^3. The test was performed on each of the 4 to 5 mice in a solvent group and a compound administered group. By oral administration, 6% cyclodextrin aqueous solution for the solvent group, and 6% cyclodextrin aqueous solution in which the test compound was mixed by 8 mg/kg for the compound administered group were administered. The administration was performed once a day for 14 days (NCI-H1993, HARA), 21 days (A427), or 35 days (NCI-H1395), and the body weight and the tumor diameter were measured twice a week. For calculation of the tumor volume, the formula below was used.
(§2) [Tumor volume (mm^3)]=[major axis of tumor (mm)]×[minor axis of tumor (mm)]^2×0.5
(§3) The inhibition rate of tumor growth and the rate of tumor regression were calculated from the average value of the tumor volume according to the formula below. […]

NCI-H1395 cells [2] = assay: Anti-tumor test (1) on mice bearing NCI-H1395 tumors; format: in vivo, BALB/c nude mice; conditions: Test Example 3, NCI-H1395 (LKB1 mutation-positive), 8 mg/kg oral once a day for 35 days, final measuring day
Method: as §1, §2, §3

HARA cells [3] = assay: Anti-tumor test (1) on mice bearing HARA tumors; format: in vivo, BALB/c nude mice; conditions: Test Example 3, HARA (LKB1 wild-type), 8 mg/kg oral once a day for 14 days, final measuring day
Method: as §1, §2, §3

NCI-H1993 cells [4] = assay: Anti-tumor test (1) on mice bearing NCI-H1993 tumors; format: in vivo, BALB/c nude mice; conditions: Test Example 3, NCI-H1993 (LKB1 wild-type), 8 mg/kg oral once a day for 14 days, final measuring day
Method: as §1, §2, §3

A427 cells [5] = assay: Anti-tumor test (2) on mice bearing A427 tumors; format: in vivo, BALB/c nude mice; conditions: final measuring day
Method: (§4) A427 cells and NCI-H1395 cells which are LKB1 mutation-positive non-small cell lung cancer cell lines, and HARA cells and NCI-H1993 cells which are LKB1 wild-type non-small cell lung cancer cell lines, suspended in a mixed solution of PBS and Matrigel (registered trademark) in 1:1, were injected and implanted, 3×10^6 cells each (for A427 cells, 5×10^6), to 4- to 5-week-old male BALB/c nude mice (Charles River Laboratories Japan, Inc.) under the skin on the back. Dividing into groups was performed when the tumor volume reached 100 to 300 mm^3, and administering of the test compounds was started. The test was performed on each of the 5 mice in the solvent group and the compound administered group. By oral administration, 6% cyclodextrin aqueous solution for the solvent group, and 6% cyclodextrin aqueous solution in which the test compound was mixed by the dosage shown in Table 4 for the compound administered group were administered. The administration was performed once a day for 14 days (HARA), 21 days (A427, NCI-H1993), or 35 days (NCI-H1395), and the body weight and the tumor diameter were measured twice a week. For calculation of the tumor volume, the formula below was used.
(§5) [Tumor volume (mm^3)]−[major axis of tumor (mm)]×[minor axis of tumor (mm)]^2×0.5
(§6) The inhibition rate of tumor growth and the rate of tumor regression were calculated from the average value of the tumor volume according to the formula below.
(§7) Inhibition rate of tumor growth (%)=(1−average of tumor volume growth in each group/average of tumor volume growth in control group)×100
(§8) Rate of tumor regression (%)=(1−average tumor volume in each group on measuring day/average tumor volume in each group when dividing groups)×100

NCI-H1395 cells [6] = assay: Anti-tumor test (2) on mice bearing NCI-H1395 tumors; format: in vivo, BALB/c nude mice; conditions: final measuring day
Method: as §4, §5, §6, §7, §8

HARA cells [7] = assay: Anti-tumor test (2) on mice bearing HARA tumors; format: in vivo, BALB/c nude mice; conditions: Test Example 4, HARA, final measuring day
Method: as §4, §5, §6, §7, §8

NCI-H1993 cells [8] = assay: Anti-tumor test (2) on mice bearing NCI-H1993 tumors; format: in vivo, BALB/c nude mice; conditions: final measuring day
Method: as §4, §5, §6, §7, §8

AMPK = assay: Evaluation on effect of activating AMPK (phosphorylation of ACC Ser79, Cell ELISA in MDA-MB-453 cells); format: cell-based; conditions: Homo sapiens, 2 hours, concentration as freebase
Method: 36 μl each of MDA-MB-453 cells was seeded in Leibovitz's L-15 medium including 10% fetal bovine serum (Life Technologies Corporation) in a 384 well plate so that the cells became 15,000 cells per well, and the cells were cultured overnight at 37° C. in the absence of CO2. […] After that, the cells were cultured at 37° C. for 2 hours in the absence of CO2. 20 μl of a 40% glyoxal solution (Nacalai Tesque, INC.) was added to each well, and then the cells were left to stand at room temperature for 30 minutes to be fixed. Thereafter, the supernatant was removed by centrifuging the plate (at 800 rpm for 8 seconds by using the Ecospin of C.A.N. Hereinafter the centrifugation was performed under the same conditions unless otherwise specified), and 20 μl of 0.1% Triton X-100-containing Phosphate-Buffered Saline (PBS) was added to each well, and then left to stand at room temperature for 10 minutes. The 0.1% Triton X-100-containing PBS was removed by centrifugation, and 20 μl of a blocking solution (Odyssey Blocking Buffer manufactured by LI-COR Biosciences, Inc.) was added to each well, and then left to stand at room temperature for 1 hour. […] On the following day, the reaction solution was removed by centrifuging the plate, and 25 μl of 0.05% Tween-20-containing Tris-Buffered Saline (TBS) (manufactured by Thermo Scientific; used in 1× by diluting 20×TBS Tween-20 with ion-exchange water) was added to each well, and then each well was washed by centrifugal removal. The washing was performed for a total of 3 times. […] The reaction solution was removed by centrifuging the plate, and then each well was washed for 3 times with 0.05% Tween-20-containing TBS in the same manner as after the primary antibody reaction. After the washing solution was removed, the plate was air-dried at room temperature for 3 hours or longer and signals were measured by Aerius (manufactured by LI-COR Biosciences, Inc.).

[9] = Test Example 4, A427, 8 mg/kg oral once a day for 21 days
[10] = Test Example 4, NCI-H1395, 8 mg/kg oral once a day for 35 days
[11] = 8 mg/kg oral once a day for 14 days
[12] = Test Example 4, NCI-H1993, 8 mg/kg oral once a day for 21 days
[13] = Test Example 4, A427, 1 mg/kg oral once a day for 21 days
[14] = Test Example 4, NCI-H1395, 1 mg/kg oral once a day for 35 days
[15] = 1 mg/kg oral once a day for 14 days
[16] = Test Example 4, NCI-H1993, 1 mg/kg oral once a day for 21 days

EC50 (AMPK) [nM] | SMILES | Rate of tumor regression (A427 cells [1]) [% regression] | Rate of tumor regression (NCI-H1395 cells [2]) [% regression] | Inhibition rate of tumor growth (HARA cells [3]) [% inhibition] | Inhibition rate of tumor growth (NCI-H1993 cells [4]) [% inhibition] | Inhibition rate A427 (A427 cells [5]; [9]) [% inhibition] | Inhibition rate NCI-H1395 (NCI-H1395 cells [6]; [10]) [%] | Inhibition rate HARA (HARA cells [7]; [11]) [%] | Inhibition rate NCI-H1993 (NCI-H1993 cells [8]; [12]) [%] | Regression rate A427 (A427 cells [5]; [13]) [% regression] | Inhibition rate NCI-H1395 (NCI-H1395 cells [6]; [14]) [%] | Inhibition rate HARA (HARA cells [7]; [15]) [%] | Inhibition rate NCI-H1993 (NCI-H1993 cells [8]; [16]) [%] | Inhibition rate A427 (A427 cells [5]; [13]) [% inhibition]
– | COc1ccc(CN2CCC(c3ccc4[nH]c(C(=O)N5CCN(Cc6ccc(C(F)(F)F)cc6)CC5)nc4c3)CC2)cn1 [Compound A1, (5-{1-[(6-methoxypyridin-3-yl)methyl]piperidin-4-yl}-1H-benzimidazol-2-yl){4-[4-(trifluoromethyl)benzyl]piperazin-1-yl}methanone] | 41 | 16 | 32 | 62 | 84 | 61 | 1.2 | 47 | – | – | – | – | –
8.3 | COc1cnc(CN2CCC(c3ccc4[nH]c(C(=O)N5CCN(Cc6ccc(C(F)(F)F)cc6)CC5)nc4c3)CC2)cn1 [Compound B1, (5-{1-[(5-methoxypyrazin-2-yl)methyl]piperidin-4-yl}-1H-benzimidazol-2-yl) {4-[4-(trifluoromethyl)benzyl]piperazin-1-yl}methanone] | – | – | – | – | 99 | 74 | 14 | 62 | – | – | – | – | –
1.8 | CCOc1cnc(CN2CCC(c3ccc4cc(C(=O)N5CCN(Cc6ccc(C#N)cc6)CC5)n(C)c4c3)CC2)cn1 [Compound C1, 4-({4-[(6-{1-[(5-ethoxypyrazin-2-yl)methyl]piperidin-4-yl}-1-methyl-1H-indol-2-yl)carbonyl]piperazin-1-yl}methyl)benzonitrile] | – | – | – | – | – | – | – | – | 69 | 75 | 29 | 50 | –
3.3 | COc1cnc(CN2CCC(c3ccc4c(c3)cc(C(=O)N3CCN(Cc5ccc(C#N)cc5)CC3)n4C)CC2)cn1 [Compound D1, 4-({4-[(5-{1-[(5-methoxypyrazin-2-yl)methyl]piperidin-4-yl}-1-methyl-1H-indol-2-yl)carbonyl]piperazin-1-yl}methyl)benzonitrile] | – | – | – | – | – | – | – | – | – | 70 | 31 | 42 | 96
